Experimental findings from PubChem BioAssay AID330 (DTP/NCI, 2004) are described below.

In this assay the test system is P388 leukemia ip, CD2F1 mice, survival T/C. Description: NCI In Vivo Anticancer Drug Screen. Data for tumor model P388 Leukemia (intraperitoneal) in CD2F1 (CDF1) mice. Particulars: endpoint: median survival time, higher = longer survival. A digest of the protocol:
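Mice carrying the transplanted tumor received test compound or vehicle. Survival was recorded in each group, and the value is the treated-group measurement divided by that of the vehicle-treated control group.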

The mark [1] stands for this setting: dose: 60.0 mg/kg/injection, schedule: Q01DX005 (ip), vehicle: saline with Tween-80.
The mark [2] stands for this setting: dose: 6.25 mg/kg/injection, schedule: Q01DX005 (ip), vehicle: saline with Tween-80.
Setting [3] is: dose: 12.5 mg/kg/injection, schedule: Q01DX005 (ip), vehicle: saline with Tween-80.
The mark [4] stands for this setting: dose: 25.0 mg/kg/injection, schedule: Q01DX005 (ip), vehicle: saline with Tween-80.
The mark [5] stands for this setting: dose: 50.0 mg/kg/injection, schedule: Q01DX005 (ip), vehicle: saline with Tween-80.
Setting [6] is: dose: 15.0 mg/kg/injection, schedule: Q01DX009 (ip), vehicle: saline with Tween-80.

Where “and” joins values, the source holds several entries; their conditions need not be identical. Identical values can stand only once. Inconclusive results and toxic doses are left out.

On to `CCOC(=O)C1=C(C)NC(=O)NC1c1ccc(N(C)C)cc1` (stereo not drawn), for which the T/C is, setting by setting: (dose: 50.0 mg/kg/injection, schedule: Q01DX005 (ip), vehicle: Klucel (hydroxypropylcellulose) (HPC)) 90 % of control; (dose: 100.0 mg/kg/injection, schedule: Q01DX005 (ip), vehicle: Klucel (hydroxypropylcellulose) (HPC)) 95 % of control; (dose: 200.0 mg/kg/injection, schedule: Q01DX005 (ip), vehicle: Klucel (hydroxypropylcellulose) (HPC)) 97 % of control.

For `CCCC(=O)NC1=C(N2CC2)C(=O)C(NC(=O)CCC)=C(N2CC2)C1=O`, the T/C is 120 % of control (dose: 0.13 mg/kg/injection, schedule: Q01DX009 (ip), vehicle: saline with Tween-80); 118 % of control (dose: 0.2 mg/kg/injection, schedule: Q01DX009 (ip), vehicle: saline with Tween-80); 112 % of control (dose: 0.44 mg/kg/injection, schedule: Q01DX009 (ip), vehicle: saline with Tween-80); 157 % of control (dose: 1.0 mg/kg/injection, schedule: Q01DX009 (ip), vehicle: saline with Tween-80); 181 % of control (dose: 1.56 mg/kg/injection, schedule: Q01DX009 (ip), vehicle: saline with Tween-80); 159 % of control (dose: 2.5 mg/kg/injection, schedule: Q04DX003 (ip), vehicle: saline with Tween-80). For the same compound, the T/C is 154 % of control (dose: 3.13 mg/kg/injection, schedule: Q04DX003 (ip), vehicle: saline with Tween-80); 200 % of control (dose: 5.0 mg/kg/injection, schedule: Q04DX003 (ip), vehicle: saline with Tween-80); 86 % of control (dose: 6.25 mg/kg/injection, schedule: Q01DX009 (ip), vehicle: saline with Tween-80); 227 % of control (dose: 6.25 mg/kg/injection, schedule: Q04DX003 (ip), vehicle: saline with Tween-80); 104 % of control (dose: 12.5 mg/kg/injection, schedule: Q04DX003 (ip), vehicle: saline with Tween-80).

In the case of `Cc1c2ccn(CCCCCCCCn3ccc4c(C)c5nc6ccccc6c5c(C)c4c3)cc2c(C)c2c1nc1ccccc12`, the T/C is, setting by setting: (dose: 3.13 mg/kg/injection, schedule: Q04DX003 (ip), vehicle: distilled water + Tween-80) 118 % of control and 121 % of control; (dose: 25.0 mg/kg/injection, schedule: Q04DX003 (ip), vehicle: distilled water + Tween-80) 123 % of control.

As for `CN(C)C(=O)Oc1c(Cc2ccccc2)c(=O)n2c([nH]c3ccccc32)c1C#N`, the T/C under setting [1] was 89 % of control and the T/C (dose: 120.0 mg/kg/injection, schedule: Q01DX005 (ip), vehicle: saline with Tween-80) was 92 % of control.

`COC1(OC)OC(c2ccccc2)=C(C#N)C(c2ccccc2)C1(OC)OC` (stereo not drawn): the T/C is, setting by setting: (dose: 60.0 mg/kg/injection, schedule: Q01DX005 (ip), vehicle: Klucel (hydroxypropylcellulose) (HPC)) 102 % of control; (dose: 120.0 mg/kg/injection, schedule: Q01DX005 (ip), vehicle: Klucel (hydroxypropylcellulose) (HPC)) 100 % of control; (dose: 240.0 mg/kg/injection, schedule: Q01DX005 (ip), vehicle: Klucel (hydroxypropylcellulose) (HPC)) 96 % of control.

With `O=C(O)Cn1ccnc1[N+](=O)[O-]`, the T/C is, setting by setting: (dose: 12.5 mg/kg/injection, schedule: Q01DX009 (ip), vehicle: distilled water + Tween-80) 100 % of control; (dose: 25.0 mg/kg/injection, schedule: Q01DX009 (ip), vehicle: distilled water + Tween-80) 100 % of control; (dose: 50.0 mg/kg/injection, schedule: Q01DX009 (ip), vehicle: distilled water + Tween-80) 118 % of control; (dose: 100.0 mg/kg/injection, schedule: Q01DX009 (ip), vehicle: distilled water + Tween-80) 90 % of control; (dose: 200.0 mg/kg/injection, schedule: Q01DX009 (ip), vehicle: distilled water + Tween-80) 109 % of control.

`COC1=CC(=O)c2nc(Cl)ccc2C1=O`: the T/C reads like this: under setting [2], 100 % of control; under setting [3], 100 % of control; under setting [4], 108 % of control and 92 % of control; under setting [5], 100 % of control.

Turning to `COc1cc2c(cc1NC(C)=O)C(=O)CCCC2`, the T/C was 107 % of control (dose: 100.0 mg/kg/injection, schedule: Q01DX009 (ip), vehicle: saline + alcohol); 103 % of control (dose: 200.0 mg/kg/injection, schedule: Q01DX009 (ip), vehicle: saline + alcohol); 110 % of control (dose: 400.0 mg/kg/injection, schedule: Q01DX009 (ip), vehicle: saline + alcohol).

For the compound `Cc1ccccc1N=Nc1c(O)n(-c2ccc(Br)cc2)c(=S)n(-c2ccccc2)c1=O`, the T/C was 98 % of control (dose: 100.0 mg/kg/injection, schedule: Q01DX001 (ip), vehicle: saline with Tween-80); 98 % of control (dose: 200.0 mg/kg/injection, schedule: Q01DX001 (ip), vehicle: saline with Tween-80); 89 % of control (dose: 400.0 mg/kg/injection, schedule: Q01DX001 (ip), vehicle: saline with Tween-80).

Take `COc1ccc2c(c1)O[C@H]1c3ccc(O)cc3OC[C@@H]21`: the T/C runs as follows: under setting [5], 100 % of control; (dose: 100.0 mg/kg/injection, schedule: Q01DX005 (ip), vehicle: saline with Tween-80) 91 % of control; (dose: 200.0 mg/kg/injection, schedule: Q01DX005 (ip), vehicle: saline with Tween-80) 91 % of control.

For the compound `C=C1CC2(C=C(C)CCC2C(C)C)OC1=O` (stereo not drawn), the T/C runs as follows: (dose: 100.0 mg/kg/injection, schedule: Q01DX001 (ip), vehicle: saline) 101 % of control; (dose: 200.0 mg/kg/injection, schedule: Q01DX001 (ip), vehicle: saline) 101 % of control; (dose: 400.0 mg/kg/injection, schedule: Q01DX001 (ip), vehicle: saline) 101 % of control.

As for `COC(=O)C1=C(C(=O)OC)C2C=CC1C1C(Cl)C(Cl)C21` (stereo not drawn), the T/C (dose: 7.5 mg/kg/injection, schedule: Q01DX009 (ip), vehicle: saline with Tween-80) was 103 % of control; the T/C under setting [6] was 112 % of control; the T/C (dose: 30.0 mg/kg/injection, schedule: Q01DX009 (ip), vehicle: saline with Tween-80) is 115 % of control; the T/C (dose: 100.0 mg/kg/injection, schedule: Q01DX009 (ip), vehicle: saline with Tween-80) was 95 % of control; the T/C (dose: 200.0 mg/kg/injection, schedule: Q01DX009 (ip), vehicle: saline with Tween-80) was 90 % of control.

As to `COc1cccc(Sc2ccc([N+](=O)[O-])c3no[n+]([O-])c23)c1`, the T/C was 100 % of control (dose: 0.93 mg/kg/injection, schedule: Q01DX005 (ip), vehicle: saline with Tween-80); 157 % of control (dose: 0.93 mg/kg/injection, schedule: Q01DX009 (ip), vehicle: saline with Tween-80); 100 % of control and 97 % of control (dose: 1.56 mg/kg/injection, schedule: Q01DX005 (ip), vehicle: saline with Tween-80); 99 % of control (dose: 1.87 mg/kg/injection, schedule: Q01DX005 (ip), vehicle: saline with Tween-80); 163 % of control (dose: 1.87 mg/kg/injection, schedule: Q01DX009 (ip), vehicle: saline with Tween-80); 100 % of control and 102 % of control (dose: 3.12 mg/kg/injection, schedule: Q01DX005 (ip), vehicle: saline with Tween-80). In addition, the T/C by setting is: (dose: 3.75 mg/kg/injection, schedule: Q01DX005 (ip), vehicle: saline with Tween-80) 99 % of control; (dose: 3.75 mg/kg/injection, schedule: Q01DX009 (ip), vehicle: saline with Tween-80) 99 % of control; under setting [2], 100 % of control and 106 % of control; (dose: 7.5 mg/kg/injection, schedule: Q01DX005 (ip), vehicle: saline with Tween-80) 102 % of control; under setting [3], 102 % of control and 106 % of control; (dose: 15.0 mg/kg/injection, schedule: Q01DX005 (ip), vehicle: saline with Tween-80) 106 % of control. In addition, the T/C (dose: 15.0 mg/kg/injection, schedule: Q01DX009 (ip), vehicle: Klucel (hydroxypropylcellulose) (HPC)) is 184 % of control; the T/C under setting [6] is 107 % of control; the T/C under setting [4] was 108 % of control and 111 % of control; the T/C (dose: 30.0 mg/kg/injection, schedule: Q01DX005 (ip), vehicle: saline with Tween-80) was 109 % of control; the T/C (dose: 30.0 mg/kg/injection, schedule: Q01DX009 (ip), vehicle: Klucel (hydroxypropylcellulose) (HPC)) is 166 % of control; the T/C under setting [1] was 110 % of control. The T/C (dose: 60.0 mg/kg/injection, schedule: Q01DX009 (ip), vehicle: Klucel (hydroxypropylcellulose) (HPC)) was 88 % of control.

As to `Cc1ccc2c(N(C)C)cc(N(C)C)nc2c1C`, the T/C by setting is: (dose: 50.0 mg/kg/injection, schedule: Q01DX009 (ip), vehicle: Klucel (hydroxypropylcellulose) (HPC)) 104 % of control; (dose: 100.0 mg/kg/injection, schedule: Q01DX009 (ip), vehicle: Klucel (hydroxypropylcellulose) (HPC)) 105 % of control.
